Data taken from patent publication US20100184783A1, “COMBINATION FOR USE IN THE TREATMENT OF INFLAMMATORY ATHEROSCLEROSIS COMPRISING A MAST CELL INHIBITOR AND A PPAR GAMMA AGONIST” (priority 2007, published 2010).

Tested on: human macrophage cell-line MonoMac-6 (MM6)
Test: Inhibition of macrophage proliferation (MM6 cell proliferation, WST-1 reagent)
Assay type: cell-based
Settings: 46 hours, mean, n=5
Method: Cells from the human macrophage cell-line MonoMac-6 (MM6) (Ziegler-Heitbrock et al, Int. J. Cancer, 41, 456 (1988)) were cultured (37° C./5% CO2) in RPMI-1640 medium supplemented with 1 mM sodium pyruvate, 1×nonessential amino acids, 10 μg/mL insulin, 1 mM oxalacetic acid, 100 units/mL penicillin, 100 μg/mL streptomycin and 10% (v/v) fetal bovine serum. At the start of the experiment, MM6 cells were seeded in 96-well plates at a density of 1>10^5 cells/mL (100 μL per well). Proliferation of the MM6 cells was measured using the Cell Proliferation Reagent WST-1 (Roche Diagnostics Scandinavia AB, Bromma, Sweden) or by cell counting using a microscope. The WST-1 reagent is designed to be used for spectrophotometric quantification of e.g. cell growth in proliferation assays and was used according to the manufacturers' instructions. The wavelength for measuring absorbance was 450 nm. Stock solutions of pemirolast (potassium salt; purchased from American Custom Chemicals Corporation, San Diego, USA) were made in sterile saline. Pioglitazone (HCl salt; purchased from AK Scientific, Inc., Mountain View, Calif., USA) was dissolved in DMSO and then diluted in sterile saline leading to final DMSO concentrations in the MM6 incubations of 0.003%, 0.01% and 0.03% for the final pioglitazone concentrations of 0.1 μM, 0.3 μM and 1 μM, respectively. The effects of treatment with pioglitazone (alone and in combination) on MM6 proliferation were compared with control treatments containing DMSO at concentrations corresponding to the DMSO concentrations used in the different respective pioglitazone treatments. Untreated MM6 cells increased from 1×10^5 cells/mL at the start of the experiment to 1.4×10^5±0.06×10^5 cells/mL and 2.3×10^5±0.10×10^5 cells/mL after 24 and 48 hours, respectively (mean values±sem, n=4 for each of the three time-points). Pemirolast and/or pioglitazone were added at the start of the experiments and 46 hours later the effects of the drugs on MM6 cell proliferation were studied using the WST-1 reagent described above. The WST-1 reagent was added at 44 hours after start of the experiments and the average absorbance of untreated control cells exposed to the WST-1 reagent was 0.89 (n=5).

## Cc1cccn2c(=O)c(-c3nnn[nH]3)cnc12 [pemirolast]
10 μM pemirolast
  MM6 proliferation, of the proliferation of untreated control cells: 101%
30 μM pemirolast
  MM6 proliferation, of the proliferation of untreated control cells: 124%
100 μM pemirolast
  MM6 proliferation, of the proliferation of untreated control cells: 102%

## CCc1ccc(CCOc2ccc(CC3SC(=O)NC3=O)cc2)nc1 (stereo not drawn) [pioglitazone]
0.1 μM pioglitazone, control with DMSO
  MM6 proliferation, of the proliferation of untreated control cells: 91%
0.3 μM pioglitazone, control with DMSO
  MM6 proliferation, of the proliferation of untreated control cells: 96%
1 μM pioglitazone, control with DMSO
  MM6 proliferation, of the proliferation of untreated control cells: 88%
